Consider 1 compound from publication PMC8745710, “Biological Evaluation and Molecular Docking Studies of Novel 1,3,4-Oxadiazole Derivatives of 4,6-Dimethyl-2-sulfanylpyridine-3-carboxamide” (International Journal of Molecular Sciences, 2022).

For series [1], the system named is LoVo (colon adenocarcinoma). As to the kind of experiment: MTT assay, LoVo. It is filed as cell-based. The following applies: Homo sapiens, 48 h incubation, read-out: IC50 [µM] ± SD LoVo. From the text: (§1) The MTT (3-[4,5-dimethylthiazol-2-yl]-2,5-diphenyl tetrazolium bromide) assay was used to determine the cytotoxicity of tested compounds towards different cell lines: normal human dermal fibroblasts (NHDF), kidney epithelial cells (VERO), fibroblasts from Chinese hamster lung (V79) and four human cancer cells: A549 (pulmonary basal cell alveolar adenocarcinoma), MCF-7 (breast adenocarcinoma), LoVo (colon adenocarcinoma), and its drug resistant subline LoVo/Dx. The cell lines used in this study express COX-1 and COX-2. The LoVo line expressed COX-1, the LoVo/Dx subline express both COX-1 and COX-2 [61].
(§2) Each cell line was grown in the culture media recommended by supplier. Before the test they were detached with trypsin/EDTA solution, then to neutralize the effect of Trypsin/EDTA solution, FBS containing medium was used. After centrifugation the cells were stained with 0.4% solution of trypan blue, counted and inspected for viability using microscope. In the end, cells were inserted into 96-well culture plates and incubated in CO2 incubator (37 °C, 24 h). The number of cells was 2 × 10^3 cells per well. The tested compounds with different concentrations (5, 10, 20, 50, 100 µM) were dissolved in DMSO and then added to the cells (the final DMSO concentration was 0.1%). The cultures were incubated for another 48 h. After that time the cells were collected to be used in tests.
(§3) MTT assay was used to find out how tested compounds influence the metabolic activity of investigated cell lines. The cells were incubated with tested compounds. After removing of supernatant, 1 mg/mL of MTT solution in MEM was added to the plate (to each well) and then the plates were incubated at 37 °C for 2 h. The medium was removed again, and formazan crystals were dissolved in isopropanol. A Varioscan LUX microplate reader (Thermo Fisher Scientific, Waltham, MA, USA) was used to measure absorbance at 570 nm.
A general note: Tetrazolium dyes change colour on reduction, which living cells bring about.

The target in the next series is T1, COX-2 (Homo sapiens, UniProt P35354).
T1 construct: purchased Cayman Chemical Company, Ann Arbor, MI, USA
T1 sequence (P35354 18-604): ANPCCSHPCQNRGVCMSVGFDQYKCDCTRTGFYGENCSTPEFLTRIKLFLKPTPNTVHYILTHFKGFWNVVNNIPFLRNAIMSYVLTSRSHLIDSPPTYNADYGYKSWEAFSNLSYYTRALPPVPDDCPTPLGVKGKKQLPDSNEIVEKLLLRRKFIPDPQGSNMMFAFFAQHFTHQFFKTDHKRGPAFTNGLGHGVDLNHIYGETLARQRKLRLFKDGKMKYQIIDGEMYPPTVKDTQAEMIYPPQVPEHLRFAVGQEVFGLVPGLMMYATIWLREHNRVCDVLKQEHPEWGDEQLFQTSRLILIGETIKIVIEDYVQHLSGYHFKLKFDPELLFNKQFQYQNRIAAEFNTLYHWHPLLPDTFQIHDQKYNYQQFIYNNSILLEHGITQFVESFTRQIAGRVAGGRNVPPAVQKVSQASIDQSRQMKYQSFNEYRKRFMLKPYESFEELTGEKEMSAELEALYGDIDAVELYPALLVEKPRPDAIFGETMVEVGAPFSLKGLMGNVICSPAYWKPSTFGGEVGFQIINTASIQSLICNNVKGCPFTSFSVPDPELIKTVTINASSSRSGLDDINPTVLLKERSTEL
As to the kind of experiment: COX colorimetric inhibitor screening assay, COX-2. It is filed as biochemical. From the text: The compounds were studied for their potencies to inhibit COX-1 and COX-2 enzymes by the colorimetric inhibitor screening assay.
A COX Colorimetric Inhibitor Screening Assay Kit, produced by Cayman Chemical Company, Ann Arbor, MI, USA, was used. It used the colorimetric monitoring of oxidized form of TMPD (N,N,N′,N′-tetramethyl-p-phenylenediamine) which was produced during reduction of prostaglandin G2 (PGG2) to PGH2. […] Reagents used it this assay were: COX-1 and COX-2 enzymes, Tris-HCl buffer, solutions of heme in DMSO and TMPD, arachidonic acid, KOH. To be sure that 100% enzymatic activity was achieved each sample was measured 3 times. The probes were measured after two minutes of incubation with tested compounds in the comparison to the initial activity of enzyme.

For series [2], the system named is V79 (fibroblasts from Chinese hamster lung). As to the kind of experiment: MTT assay, V79. Format: cell-based. The conditions noted are these: Cricetulus griseus, Fibroblast, 48 h incubation, read-out: IC50 [µM] ± SD V79.
Source text: as §1, §2, §3

The next series concerns LoVo cell line. Kind of series: Intracellular ROS level (DCFH-DA), LoVo cells. Format: cell-based. The conditions noted are these: Homo sapiens, 4 h, compound 100 μM. The procedure:
Two cell lines were chosen for investigations: V79 (Chinese hamster lung fibroblasts) and LoVo. V79 normal cells are widely used as the cell line tested in the studies of the oxidative stress. These cells are a living system model to explain the mechanism of ROS effects caused by varied compounds [73].
First, the tested compounds (in concentration of 100 μM) were added to the cell cultures and cells were incubated for 4 h. Then cells were washed and incubated with DCFH-DA (non-fluorescent probe) in dark at 37 °C for 2 h at CO2 [79]. Non-fluorescent, non-polar DCFH-DA (2′7′-dichlorodihydrofluorescein diacetate) at concentration of 25 μM was used as a marker of oxidative stress to determine the intracellular ROS levels. […] In this time, DCFH-DA which penetrated into the cells, was hydrolyzed by esterases to polar, non-fluorescent DCFH (2′7′-dichlorodihydrofluorescein) and then oxidized in the presence of ROS (reactive oxygen species) to fluorescent DCF (2′7′-dichlorofluorescein). DCF was measured using Varioscan LUX microplate reader (Thermo Fisher Scientific, Waltham, MA, USA) at λex = 485 nm and λem = 535 nm.
E is the culture with the tested compound and E0 is the negative control without the compound. The routine statistical methods: two-way analysis of variance ANOVA as well as Tukey’s post-hoc test were used. It allowed us to determine the statistical significance of results, where p < 0.05 was set as significant. The statistical indicators were estimated using Statistica 13.3 software.

Read-outs that look alike come from different tables or passages of the source.

With `Cc1cc(C)c(C(=O)NCc2nn(CC(=O)NN=Cc3ccc(C(F)(F)F)cc3)c(=S)o2)c(S)n1` [Compound 11, 4,6-Dimethyl-N-{[4-(2-(2-(4-trifluoromethylbenzylidene)hydrazinyl)-2-oxoethyl)-5-sulfanylidene-4,5-dihydro-1,3,4-oxadiazole-2-yl]methyl}-2-sulfanylpyridine-3-carboxamide], the melting point fell in the range of 253 to 255 °C. Moreover, the IC50 in series [1] came to 3.12 ± 0.31 µM. Further, the IC50 at COX-2 (after 2 min of incubation, n = 5, read-out: IC50 [µM] ± SD COX-2) was 170 ± 19.1 µM. Also, the “COX-2/COX-1 Selectivity Ratio” value at COX-2 (ratio of IC50 COX-2 / IC50 COX-1) amounted to 1.97. Moreover, the IC50 in series [2] is 55.2 ± 2.75 µM. Also, in the series on LoVo cell line (with H2O2 (100 μM, 30 min), n = 5, read-out: ROS scavenging activity, Mean E/E0 ± SD, with H2O2), the activity at 100 µM is 84 ± 17%. For the same compound, in the series on LoVo cell line (without H2O2, n = 5, read-out: ROS scavenging activity, Mean E/E0 ± SD, without H2O2), the activity at 100 µM turned out to be 124 ± 65%.

For orientation: IC50 means the midpoint of a concentration-inhibition curve. One may read the melting point as the temperature of the solid-liquid transition.
